# According to article PMC12040169 (PLOS Biology, 2025):
# Experiment: in vitro
# Settings: human, hela cells, % viability
row,Compound,"viability at 28.5 h, 10 µM"
1,CCn1nc(-c2ccc(C)o2)nc1CC1NC(=O)c2ccccc21 (stereo not drawn) [CBK306834],87%
2,Cc1ccc(S(=O)(=O)NCCNc2ccc([N+](=O)[O-])cc2C(F)(F)F)cc1 [CBK265140],90.6%
3,CCOc1ccc(Cl)cc1CN(C)C(=O)NC(c1ncnn1C)C(C)C (stereo not drawn) [CBK307110],80.5%
4,CC(C)C(=O)Nc1cc2cccnc2nc1-c1ccsc1 [CBK073649],87.8%
5,CCOc1ccc(S(=O)(=O)N2CCCN(Cc3ccc(C#N)cc3)CC2)c2cccnc12 [CBK062759],107%
6,CCNC(=O)O[C@@H]1CO[C@H]2[C@@H]1OC[C@@H]2NC(=O)Nc1ccc(C(C)=O)cc1 [CBK289473],93.5%
7,O=C(Nc1ccccn1)c1c(O)n(Cc2ccccc2)c2ccccc2c1=O [CBK291213],90.3%
8,Cc1nccn1CCNC(=O)CCc1nc2ccccc2n1C [CBK281978],95.3%
9,O=C(O)CC(c1ccncc1)c1c[nH]c2ccccc12 (stereo not drawn) [CBK286913],90.9%
10,c1ccc(Cn2cncc2-c2cncn2CCCN2CCCCC2)cc1 [CBK281490],114%
11,CCc1onc(-c2ccccc2)c1C(=O)NCCO [CBK160434],89.8%
12,C(=C\CSc1nc2ccccc2[nH]1)/CSc1nc2ccccc2[nH]1 [CBK263090],107%
13,Cc1cc(C)n(CC(O)CN2C(=O)NC(C)(C)C2=O)n1 (stereo not drawn) [CBK264811],107%
14,CN(C)CCN(C(=O)Cc1ccc2c(c1)CCC2)C1CCN(C)CC1 [CBK282182],84.6%
15,Fc1ccc(-c2cccc(Nc3ccc(Oc4ccccc4)cc3)n2)cc1Cl [CBK037699],102%
16,Nc1ccn(C2OC(CO)C(O)C2O)c(=O)n1 (stereo not drawn) [CBK024684],108%
17,COc1ccc2nc(-n3nc(C(=O)NCc4ccncc4)c4ccccc43)sc2c1 [CBK048521],94.9%
18,O=C(CCN1C(=O)/C(=C/c2ccc(F)cc2)SC1=S)NNC(=O)c1cccnc1 [CBK262862],104%
19,CCOC(=O)C1(C2CCCCC2)CCN(C(=O)CCC(=O)O)CC1 [CBK136939],95.9%
20,c1ccc(C(Nc2ncc(-c3cnccn3)c(-c3ccco3)n2)c2ccccc2)cc1 [CBK286413],90%
21,Cc1ccc(NC(=O)/C(C#N)=C/c2ccc(-c3ccccc3C(=O)O)o2)cc1Cl [CBK263208],102%
22,O=C(c1nc2ccccc2[nH]1)N1CCC(F)CC1 [CBK200278],90.3%

row,Compound,"viability at 28.5 h, 10 µM"
1,O=[N+]([O-])c1cc(C(F)(F)F)ccc1N(CCO)CCO [CBK262238],94.9%
2,Nc1nc(=O)c2cnc3ccc(C(=O)O)cc3c2s1 [CBK291239],96.7%
3,O=C(COc1ccc(F)cc1F)NNC(=S)NC1CCCCC1 [CBK266859],82.2%
4,CC(C)(C)c1ccc(N(C2CCNCC2)S(=O)(=O)c2ccc(Cl)cc2Cl)cc1 [CBK165067T],51%
5,COCC1CN(C(=O)Nc2nnc(Cc3ccc(C)cc3)s2)CCO1 (stereo not drawn) [CBK306278],83.3%
6,CCN(Cc1ccc(C#N)cc1F)C(=O)Nc1cnn(CCOC)c1 [CBK305697],91.9%
7,CC1(C)C[C@H](NC2CCOCC2)[C@@]2(CCC(=O)N3CCOCC3)CC[C@](C)(O)C[C@@H]12 [CBK289041],91.6%
8,Cn1c(SCC(=O)N2CCN(Cc3ccccc3)CC2)nnc1-c1cccc([N+](=O)[O-])c1 [CBK267154],90.6%
9,O=C(Cc1c[nH]c2ccccc12)Nc1cnc(-c2cccc(OC(F)(F)F)c2)c(-c2cccnc2)n1 [CBK036863],108%
10,O=C(NCc1ccc(Cl)c(Cl)c1)c1cnoc1-c1ccccc1Cl [CBK154942],98.4%
11,COCCN(Cc1cnn(C)c1)C(=O)c1nc2ccccn2c1F [CBK306892],100%
12,Cc1cc(Cl)cc(Cl)c1S(=O)(=O)Nc1nc2c(s1)C(=O)CC(C)(C)C2 [CBK200034],104%
13,Cn1c(N2CCC(C(=O)NC3CC3)CC2)nc2ccccc21 [CBK283940],97.9%
14,Cc1ccc(Cc2cnc(NC(=O)C3CCOCC3)s2)cc1F [CBK306130],77.5%
15,CN(C)CCCNC(=O)c1cc(-c2ccc(Cl)cc2)on1 [CBK116557],90.2%
16,COc1ccc([C@@]23CC[C@@H](NC(=O)Nc4ccc(C)c(F)c4F)C[C@@H]2N(C)CC3)cc1OC [CBK073686T],87.3%
17,CCn1c(-c2nonc2NC(C)=O)nc2ccccc21 [CBK062645],80%
18,Nc1ncc(-c2ccc(C(=O)N3CCOCC3)cc2)nc1-c1ccc(C[C@H](N)C(=O)O)cc1 [CBK126364],97%
19,Cc1nc(CCNC(=O)c2cc(C(C)C)n(C(C)(C)C)n2)cs1 [CBK304082],89.2%
20,CC1(C)CC(CN)(c2ccccc2)CCO1 (stereo not drawn) [CBK025559C],94.9%
21,CCn1c(SCC(=O)Nc2nc(C)c(C(=O)OC)s2)nc2c1c(=O)n(C)c(=O)n2C [CBK127470],101%
22,COc1cc(OC)nc(C(NC(=O)C2CCN(Cc3ccccc3F)CC2)c2ccc(Cl)cc2)n1 (stereo not drawn) [CBK148152],98%

row,Compound,"viability at 28.5 h, 10 µM"
1,O=C(c1cccc(F)c1)N1CCC(c2nnc3n2CCCCC3)CC1 [CBK284627],103%
2,CCOC(=O)C1CCN(C(=O)c2c(-c3ccccc3)noc2C)CC1 [CBK158704],86.3%
3,Cn1c(=O)c2c(-c3ccccc3)onc2n(C)c1=O [CBK023569],85%
4,CCCC/C=C/c1cnc2[nH]c(=O)n([C@H](C)c3ccccc3)c2n1 [CBK064182],99.7%
5,Cc1sc2nc(N)c(C(=O)NC(C)C)cc2c1C [CBK269259],115%
6,Cc1nc(CC(=O)N2CCCC(c3cccc(Cc4ccc(Cl)cc4)n3)C2)cs1 (stereo not drawn) [CBK286505],94.3%
7,Cc1nc(C2CCCCN2C(=O)CCc2ccccc2)ncc1C(=O)Nc1ccc(F)cc1 (stereo not drawn) [CBK285870],95.3%
8,CNC(=O)NC(=O)C1CCN(CCc2cccs2)CC1 [CBK034960],106%
9,COC(=O)c1c(NC(=S)Nn2cnnc2)sc2c1CCC(C)C2 (stereo not drawn) [CBK266942],91.6%
10,COc1ccc(Nc2cccc(-c3cnc(OC)nc3OC)n2)cc1 [CBK036825],89.6%
11,CSc1ccc(S(=O)(=O)NCCSCc2ccc(C)cc2)cc1 [CBK268510],104%
12,O=S(=O)(c1ccccc1)n1cc2c3c(cccc31)CN(CCO)C2 [CBK156333T],106%
13,CNc1ncnc2c1ncn2C1CC(O)C(CO)O1 (stereo not drawn) [CBK201308],96.7%
14,CN(C)c1ccc(Nc2cc(Cl)nc3ccnn23)cc1 [CBK037203],98.3%
15,O=C(c1ccc2occc2c1)N1CCCC2(CCN(Cc3ccccc3)C2)C1 (stereo not drawn) [CBK136882],105%
16,O=C(O)CNC(=O)/C(=C/c1ccc(Br)cc1)NC(=O)c1ccc(Br)o1 [CBK262537],80.1%
17,COc1cc2c(cc1OC)CN(C(=O)CSc1nnc3ccccn13)CC2 [CBK287814],94.8%
18,CCC(C)NC(=O)CSc1nnc(-c2cccs2)n1CC (stereo not drawn) [CBK296960],86.3%
19,COc1ccc(OCC2CCN(C(=O)[C@@H]3C[C@@H]4C=C[C@H]3C4)CC2)cc1 [CBK282218],93.5%
20,N#Cc1c2ccccc2cn1Cc1cccc(Cl)c1 [CBK019531],82.6%
21,Nc1nc2c([C@@H]3O[C@H](CO)[C@H](O)C3O)c[nH]c2c(=O)[nH]1 (stereo partly drawn) [CBK201292],94.5%
22,O=C(O)COCC(=O)N1C[C@@H]2OCC(=O)N(Cc3ccccc3)[C@@H]2C1 [CBK289652],101%

row,Compound,"viability at 28.5 h, 10 µM"
1,O=c1cc(C(F)(F)F)c2ccc(OCc3ccc(Cl)cc3)cc2o1 [CBK058200],93%
2,Cc1ccc(S(=O)(=O)Nc2ccc3c(c2)CC(=O)N3)cc1 [CBK287657],92.1%
3,c1cncc(COc2cncc(OC3CCNC3)n2)c1 (stereo not drawn) [CBK077419T],94.3%
4,CN(C)C(=O)N1CCN(C(=O)c2cn(Cc3cccc(S(C)(=O)=O)c3)nn2)CC1 [CBK160969T],89.7%
5,Cc1ccc2c(c1)C(Oc1cncc(N3CCNCC3)n1)CCO2 (stereo not drawn) [CBK172334G],99.7%
6,c1cc2c(cc1-c1nn3cnnc3s1)OCCO2 [CBK287866],88.1%
7,Cn1c(CN2CCN(C3CCCC3)C(=O)C2)nc2ccccc21 [CBK281577],100%
8,COCCN(Cc1cnn(C)c1)C(=O)Nc1cccc2nc(C)ccc12 [CBK306529],106%
9,COc1cc(C(=O)N2CCCC3(CCN(C(=O)c4ccoc4)C3)C2)cc(OC)c1OC (stereo not drawn) [CBK131637],114%
10,Cc1cn(CC(=O)N2CCC3(CCN(C(=O)Cc4c[nH]c5ccccc45)C3)C2)c(=O)[nH]c1=O (stereo not drawn) [CBK131445],101%
11,CCOC(=O)N1CCC(NC(=O)c2cnn3c(C)c(Cc4ccccc4)c(C)nc23)CC1 [CBK160293],90.7%
12,O=C(Nc1[nH]nc(O)c1Cc1c(Cl)cccc1Cl)C1CCCCC1 [CBK084558],92.9%
13,O=C(OCc1ccc([N+](=O)[O-])cc1)C1CCN(S(=O)(=O)c2cccc3cccnc23)CC1 [CBK264430],115%
14,Cc1ccc(Cl)cc1NC(=O)c1cnc2scc(C)n2c1=O [CBK287464],98.7%
15,COc1ccc(C(=O)N2CCC3(CCN(Cc4ccc(Cl)c(Cl)c4)C3)C2)cc1OC (stereo not drawn) [CBK132150],97.3%
16,CC(C)C(=O)NC(c1ccc(C(C)C)cc1)c1cc([N+](=O)[O-])c2cccnc2c1O (stereo not drawn) [CBK265303],103%
17,O=C(O)CSc1nnc(-c2ccc(S(=O)(=O)N3CCCCCC3)cc2)o1 [CBK300508],81.9%
18,Cc1cc2n(n1)C(c1ccc(C(=O)O)cc1)Nc1ccccc1-2 (stereo not drawn) [CBK287000],80.8%
19,Cc1cc(C)n(CC(=O)NCC2CCCO2)c(=O)c1C#N (stereo not drawn) [CBK269926],85.4%

# Same assay, conditions: human, hela cells, % viability, bulk resorufin, single well
row,Compound,"viability at 28.5 h, 10 µM"
1,CC(C)(C)OC(=O)N1CCC2(CC1)OCc1cc(-c3cccc(OCC(=O)N4CCOCC4)c3)ccc1O2 [CBK105254],96.8%
2,O=C(N[C@H]1CCN2C(=O)N(CCCl)C(=O)[C@@H]2C1)c1ccncc1 [CBK289551],88.3%
